Reference: US20120083647A1, “METHOD FOR CHANGING AN INDIVIDUAL'S STATE OF CONSCIOUSNESS” (priority 2010, published 2012)

Assays:
[1] = after LOC, continuous infusion of the drug
Description: After LOC was reached and neuroimaging completed at that level of anesthesia, those in the propofol infusion group had the infusion terminated and the subjects were allowed to emerge from anesthesia. During the emergence process, consciousness was tested at 1 min intervals until ROC was detected. ROC was defined as eye opening in response to the command to do so. […] PET measurements were thus obtained during the four conditions: baseline, sedation, LOC and ROC for 17 subjects.

[2] = healthy male volunteers, iv TCI; for subjects who lost consciousness at 75% of LOC: target 75% of individually determined LOC concentration; for subjects who lost consciousness at 100% of LOC: target 100% of individually determined LOC concentration; for subjects who lost consciousness at 125% of LOC: target 125% of individually determined LOC concentration
Description: Twenty volunteers (healthy, right-handed, 19 to 28 years old males) participated in this open, non-randomized study approved by the local ethics committee and the National Agency for Medicines. All subjects gave written informed consent. […] Subjects refrained from using alcohol or any medication for 48 hours before the study and they fasted overnight. No pre-medication was administered prior to study drug administration.
Subjects participated in two separate anesthesia sessions approximately one month apart. The first session was used to establish each subject's individual dose-response characteristics. The second session was used for neuroimaging. Subjects were anesthetized in a similar fashion on the two separate occasions. For each session, the subjects were prepared for the administration of a general anesthetic. In the first session, the individual concentrations for LOC were determined. Subjects were divided into two groups to receive either dexmedetomidine (n=10) or propofol (n=10) intravenous anesthesia via computer-controlled infusion. Once assigned to a particular anesthetic agent, that subject then again received that anesthetic during the neuroimaging session. Each infusion was started at a low rate and was then increased in a step-wise manner at 10 min intervals until LOC was detected. Consciousness was tested at 5 min intervals by asking the subjects to open their eyes. LOC was defined as being unresponsive to this request.
Dexmedetomidine (Precedex 100 μg/ml, Orion, 02200 Espoo, Finland) was administered intravenously using a target controlled infusion (TCI) scheme aiming at escalating pseudo steady-state plasma concentrations every 10 min. A Harvard 22 syringe pump (Harvard Apparatus, South Natick, Mass.) connected to a portable computer running […] software (Steven L. Schafer, M.D., Columbia University Medical Center, 622 W 168th St, PH 5-505 New York, N.Y. 10032-3725, USA) and the pharmacokinetic parameters of Talke were used (P. Talke et al., Anesthesiology 99, 65 (2003)). In the first session, the infusion was started at a target (plasma) concentration of 1.0 ng/ml, followed first by a 0.5 ng/ml target concentration increase and then by subsequent 0.25 ng/ml increases thereafter (i.e. 1.0-1.5-1.75-2.0-2.25-etc. ng/ml) until LOC was achieved.
Propofol (Propofol Lipuro 10 mg/ml, B. Braun Melsungen AG, Pfieffewiesen, D-34212 Melsungen, Germany) was administrated with the same infusion system and scheme as dexmedetomidine, using the Marsh pharmacokinetic model (B. Marsh et al., Br J Anaesth 67, 412 (1991)). In the first session, the infusion was started at a target (plasma) concentration of 1.0 μg/ml, followed first by a 0.5 μg/ml target concentration increase and then subsequent 0.25 μg/ml increases thereafter (i.e. 1.0-1.5-1.75-2.0-2.25-etc. μg/ml) until LOC was achieved.
In the second (neuroimaging) session of the study, the computer controlled drug infusion was repeated for each subject by aiming at their individually determined drug concentrations 50, 75 and 100% of the LOC concentration. Consciousness was tested similarly to the first session. If the LOC concentration defined in the first session of the study was not sufficient to produce LOC in the second session, the drug infusion was continued and an additional 25% target concentration increment was added to the rate. Concentrations were adjusted at 10 min intervals with simultaneous imaging at each level until LOC was detected.

Row | SMILES | restoration of consciousness by stimulation during drug infusion [1] | subjects who lost consciousness at 50% of the previously measured LOC concentration value ([2]; target 50% of individually determined LOC concentration) | subjects who lost consciousness at 75% of LOC [2] | subjects who lost consciousness at 100% of LOC [2] | subjects who lost consciousness at 125% of LOC [2]
1 | Cc1cccc([C@H](C)c2cnc[nH]2)c1C [dexmedetomidine, Dexmedetomidine] | gentle tactile stimulation and/or loud voice was sufficient to restore consciousness | 1 | 1 | 3 | 5
2 | CC(C)c1cccc(C(C)C)c1O [propofol, Propofol] | – | – | 2 | 6 | 1
